Test results published in ChEMBL document CHEMBL3352553, “Discovery of (E)-5-(benzylideneamino)-1H-benzo[d]imidazol-2(3H)-one derivatives as inhibitors for PTK6” (Bioorg Med Chem Lett, 2014).

Columns and labels:
[1] = molecular target: Proto-oncogene tyrosine-protein kinase Src (Homo sapiens, UniProt P12931); assay: Inhibition of Src (unknown origin) expressed in HEK293 cells assessed as decrease in phosphorylation by chemiluminescence assay; type: cell-based
[2] = molecular target: Tyrosine-protein kinase Fyn (Homo sapiens, UniProt P06241); assay: Inhibition of Fyn (unknown origin) expressed in HEK293 cells assessed as decrease in phosphorylation by chemiluminescence assay; type: cell-based
[3] = molecular target: T1, Cytoplasmic tyrosine-protein kinase BMX (Homo sapiens, UniProt P51813); assay: Inhibition of Bmx (unknown origin) expressed in HEK293 cells assessed as decrease in phosphorylation by chemiluminescence assay; type: cell-based
T1 sequence (P51813 whole entry): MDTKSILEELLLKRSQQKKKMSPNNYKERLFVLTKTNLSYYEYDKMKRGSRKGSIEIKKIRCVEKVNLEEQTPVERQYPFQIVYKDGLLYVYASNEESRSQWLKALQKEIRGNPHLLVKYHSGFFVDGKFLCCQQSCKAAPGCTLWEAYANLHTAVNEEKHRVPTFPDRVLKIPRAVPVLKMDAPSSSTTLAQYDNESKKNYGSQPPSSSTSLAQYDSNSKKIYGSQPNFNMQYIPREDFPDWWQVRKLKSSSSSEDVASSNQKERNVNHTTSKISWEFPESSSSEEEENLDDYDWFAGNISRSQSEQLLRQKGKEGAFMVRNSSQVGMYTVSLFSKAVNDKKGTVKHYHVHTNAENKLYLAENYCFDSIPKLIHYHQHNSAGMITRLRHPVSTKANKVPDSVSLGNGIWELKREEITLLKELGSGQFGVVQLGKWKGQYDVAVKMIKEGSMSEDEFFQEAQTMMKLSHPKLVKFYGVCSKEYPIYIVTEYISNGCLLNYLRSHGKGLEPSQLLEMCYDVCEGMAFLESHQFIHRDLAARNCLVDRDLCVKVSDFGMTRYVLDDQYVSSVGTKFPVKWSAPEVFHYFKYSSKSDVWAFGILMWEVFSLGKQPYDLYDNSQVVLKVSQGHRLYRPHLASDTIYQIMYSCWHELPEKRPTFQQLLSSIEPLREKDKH

[4] = molecular target: T2, Protein-tyrosine kinase 6 (Homo sapiens, UniProt Q13882); assay: Inhibition of PTK6 (unknown origin) expressed in HEK293 cells assessed as decrease in tyrosine phosphorylation by chemiluminescence assay; type: cell-based
[5] = molecular target: T2, Protein-tyrosine kinase 6; assay: Inhibition of GST-tagged PTK6 (unknown origin) assessed as phosphorylated tyrosines after 20 mins by ELISA
[6] = molecular target: Epidermal growth factor receptor (Homo sapiens, UniProt P00533)
Description: Inhibition of EGFR (unknown origin) expressed in HEK293 cells assessed as decrease in phosphorylation by chemiluminescence assay

HFF [7] = assay: Cytotoxicity against human foreskin fibroblast up to 100 uM after 24 hrs by MTT assay; type: cell-based
HFF [8] = assay: Cytotoxicity against human foreskin fibroblast after 24 hrs by MTT assay; type: cell-based

Sequence of Proto-oncogene tyrosine-protein kinase Src (P12931 2-536 limits assumed): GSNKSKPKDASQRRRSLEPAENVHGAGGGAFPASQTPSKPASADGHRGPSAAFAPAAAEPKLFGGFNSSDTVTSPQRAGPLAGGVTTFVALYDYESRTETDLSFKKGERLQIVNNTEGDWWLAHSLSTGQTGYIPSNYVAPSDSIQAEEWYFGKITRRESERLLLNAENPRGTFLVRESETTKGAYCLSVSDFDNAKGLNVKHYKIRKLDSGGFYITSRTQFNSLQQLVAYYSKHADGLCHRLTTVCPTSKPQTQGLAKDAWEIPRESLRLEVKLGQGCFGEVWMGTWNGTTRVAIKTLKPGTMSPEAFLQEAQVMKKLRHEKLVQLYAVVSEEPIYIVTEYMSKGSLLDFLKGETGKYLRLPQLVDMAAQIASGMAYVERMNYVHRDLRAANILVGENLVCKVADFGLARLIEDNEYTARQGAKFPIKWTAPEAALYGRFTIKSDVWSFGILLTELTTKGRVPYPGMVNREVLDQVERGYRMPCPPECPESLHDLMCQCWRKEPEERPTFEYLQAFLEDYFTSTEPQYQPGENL
T2 sequence (Q13882 whole entry): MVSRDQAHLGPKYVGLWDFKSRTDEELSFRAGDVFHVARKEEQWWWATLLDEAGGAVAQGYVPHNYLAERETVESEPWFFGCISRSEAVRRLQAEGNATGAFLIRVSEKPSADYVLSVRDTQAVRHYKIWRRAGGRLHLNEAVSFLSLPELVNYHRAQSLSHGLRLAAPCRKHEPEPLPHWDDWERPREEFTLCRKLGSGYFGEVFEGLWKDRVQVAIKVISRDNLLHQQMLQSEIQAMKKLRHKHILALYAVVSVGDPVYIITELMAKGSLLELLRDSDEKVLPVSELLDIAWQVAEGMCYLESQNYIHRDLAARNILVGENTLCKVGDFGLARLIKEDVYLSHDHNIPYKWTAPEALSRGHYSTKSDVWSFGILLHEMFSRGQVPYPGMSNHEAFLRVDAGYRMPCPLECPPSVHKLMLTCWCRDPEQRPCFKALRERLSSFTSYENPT
Sequence of Tyrosine-protein kinase Fyn (P06241 whole entry): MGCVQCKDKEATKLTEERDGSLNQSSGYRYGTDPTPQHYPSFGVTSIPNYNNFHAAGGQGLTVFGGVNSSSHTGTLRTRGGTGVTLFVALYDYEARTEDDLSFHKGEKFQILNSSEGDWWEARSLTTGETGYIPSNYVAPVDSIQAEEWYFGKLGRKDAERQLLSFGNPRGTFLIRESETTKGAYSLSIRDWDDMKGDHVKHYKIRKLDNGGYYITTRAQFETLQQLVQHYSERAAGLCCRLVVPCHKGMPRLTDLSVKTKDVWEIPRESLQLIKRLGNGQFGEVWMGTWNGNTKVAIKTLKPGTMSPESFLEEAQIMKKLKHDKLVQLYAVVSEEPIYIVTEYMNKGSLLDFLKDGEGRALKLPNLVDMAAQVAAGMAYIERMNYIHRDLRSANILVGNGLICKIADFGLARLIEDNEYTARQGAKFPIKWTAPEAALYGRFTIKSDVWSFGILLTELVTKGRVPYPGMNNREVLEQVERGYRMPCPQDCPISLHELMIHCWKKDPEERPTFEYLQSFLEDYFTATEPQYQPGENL
Sequence of Epidermal growth factor receptor (P00533 whole entry): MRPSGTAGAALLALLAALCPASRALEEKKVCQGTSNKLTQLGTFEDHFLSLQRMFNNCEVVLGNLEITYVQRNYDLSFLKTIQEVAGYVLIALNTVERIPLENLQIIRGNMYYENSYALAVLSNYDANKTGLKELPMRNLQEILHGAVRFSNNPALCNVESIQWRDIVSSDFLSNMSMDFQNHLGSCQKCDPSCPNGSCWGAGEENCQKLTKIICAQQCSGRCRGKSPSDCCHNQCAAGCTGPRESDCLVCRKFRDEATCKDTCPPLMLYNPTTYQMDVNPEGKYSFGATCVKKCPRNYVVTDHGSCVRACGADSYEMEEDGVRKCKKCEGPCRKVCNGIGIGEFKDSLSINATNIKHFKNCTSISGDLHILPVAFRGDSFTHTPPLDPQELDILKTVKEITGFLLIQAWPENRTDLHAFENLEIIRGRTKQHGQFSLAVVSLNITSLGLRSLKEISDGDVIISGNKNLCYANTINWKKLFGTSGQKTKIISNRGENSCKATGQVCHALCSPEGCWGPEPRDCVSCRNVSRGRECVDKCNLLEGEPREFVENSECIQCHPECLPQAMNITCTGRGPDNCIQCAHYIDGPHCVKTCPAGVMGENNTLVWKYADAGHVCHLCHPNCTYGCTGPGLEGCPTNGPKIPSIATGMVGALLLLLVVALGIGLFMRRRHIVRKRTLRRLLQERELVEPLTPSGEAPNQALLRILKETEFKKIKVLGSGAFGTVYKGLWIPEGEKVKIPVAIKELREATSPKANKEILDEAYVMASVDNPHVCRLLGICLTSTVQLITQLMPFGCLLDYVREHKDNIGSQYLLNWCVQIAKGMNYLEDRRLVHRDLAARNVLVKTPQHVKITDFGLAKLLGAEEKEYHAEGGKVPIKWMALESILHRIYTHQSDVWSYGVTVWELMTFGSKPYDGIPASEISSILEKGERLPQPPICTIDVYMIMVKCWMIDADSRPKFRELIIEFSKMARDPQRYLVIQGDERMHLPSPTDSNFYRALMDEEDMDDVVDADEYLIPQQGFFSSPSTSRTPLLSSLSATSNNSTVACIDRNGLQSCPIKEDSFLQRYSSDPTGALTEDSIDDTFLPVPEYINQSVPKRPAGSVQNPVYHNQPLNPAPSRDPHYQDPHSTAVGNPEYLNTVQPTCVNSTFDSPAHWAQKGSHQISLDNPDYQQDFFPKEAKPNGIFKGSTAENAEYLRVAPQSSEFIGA

Row | Structure (SMILES) | IC50 [4] | IC50 [5] | also measured
1 | O=c1c(-c2ccc(O)cc2)coc2cc(O)cc(O)c12 [GENISTEIN] |  |  | IC50 [1]: > 100 µM; IC50 [2]: 58.2 µM; IC50 [3]: 68 µM
2 | COc1ccc(Br)cc1/C=N/c1ccc2[nH]c(=O)[nH]c2c1 | > 100 µM | 17100 nM | 
3 | COc1cc(Br)c(Br)c(CNc2ccc3[nH]c(=O)[nH]c3c2)c1O |  | > 10000 nM | 
4 | COc1cccc(/C=N/c2ccc3[nH]c(=O)[nH]c3c2)c1O |  | > 10000 nM | 
5 | O=c1[nH]c2ccc(/N=C/c3ccccc3O)cc2[nH]1 | > 100 µM | 2000 nM | 
6 | COc1cc(Br)c(Br)c(/C=N/c2ccc3[nH]ccc3c2)c1O | 3.49 µM | 270 nM | 
7 | CCOc1cc(Br)c(Br)c(/C=N/c2ccc3scnc3c2)c1O | 2.54 µM | 1170 nM | 
8 | O=c1[nH]c2ccc(/N=C/c3ccccc3)cc2[nH]1 |  | > 10000 nM | 
9 | CCOc1cc(Cl)cc(/C=N/c2ccc3[nH]c(=O)[nH]c3c2)c1O | 51.2 µM | 1990 nM | 
10 | CCOc1cccc(/C=N/c2ccc3[nH]c(=O)[nH]c3c2)c1O |  | > 10000 nM | 
11 | COc1cc(Br)cc(/C=N/c2ccc3[nH]c(=O)[nH]c3c2)c1OC |  | > 10000 nM | 
12 | COc1cc(Br)c(Br)c(/C=N/c2ccc3[nH]cnc3c2)c1O | 5.52 µM | 200 nM | 
13 | CCOc1cc(Br)c(Br)c(CNc2ccc3[nH]c(=O)[nH]c3c2)c1O |  | 4790 nM | 
14 | COc1ccc(/C=N/c2ccc3[nH]c(=O)[nH]c3c2)c(O)c1 |  | > 10000 nM | 
15 | CCOc1cc(Br)c(Br)c(/C=N/c2ccc3[nH]ccc3c2)c1O | 7.58 µM | 360 nM | 
16 | N#C/C(=C\c1c[nH]c2ccccc12)C(=O)c1ccc(O)c(O)c1 | 53.2 µM | 2320 nM | 
17 | CCOc1cc(Br)c(Br)c(/C=N/c2ccc3[nH]cnc3c2)c1O | 4.71 µM | 130 nM | 
18 | COc1cc(Br)c(Br)c(/C=N/c2ccc3scnc3c2)c1O | 4.61 µM | 1300 nM | 

Now from value to compound, other results behind:

Row | IC50 [4] | IC50 [5] | Structure (SMILES) | also measured
19 | 3.48 µM | 1290 nM | CCOc1cc(Cl)c(Cl)c(/C=N/c2ccc3[nH]c(=O)[nH]c3c2)c1O | 
20 | 16.6 µM | 3900 nM | COc1ccc(Br)c(/C=N/c2ccc3[nH]c(=O)[nH]c3c2)c1O | 
21 | 49 µM | 5600 nM | O=c1[nH]c2ccc(/N=C/c3cc(Br)cc(Br)c3O)cc2[nH]1 | 
22 | 11.8 µM | 410 nM | O=c1[nH]c2ccc(/N=C/c3c(O)c(Br)cc(Br)c3Br)cc2[nH]1 | 
23 | 74 µM | 1680 nM | COc1cc(Cl)cc(/C=N/c2ccc3[nH]c(=O)[nH]c3c2)c1O | 
24 | 1.46 µM | 120 nM | COc1cc(Br)c(Br)c(/C=N/c2ccc3[nH]c(=O)[nH]c3c2)c1O | IC50 [6]: 88.7 µM; IC50 [1]: > 100 µM; Activity (HFF [7]): Toxic; IC50 [2]: 38.7 µM; IC50 [3]: 38.6 µM; Activity (HFF [8]): Toxic
25 | 1.6 µM | 520 nM | CCOc1cc(Br)c(Br)c(/C=N/c2ccc3[nH]c(=O)[nH]c3c2)c1O | IC50 [6]: 76.7 µM; IC50 [1]: > 100 µM; Activity (HFF [7]): Non-toxic; IC50 [2]: 68.5 µM; IC50 [3]: 42.3 µM
26 | 23.5 µM | 5830 nM | CCOc1cc(Br)cc(/C=N/c2ccc3[nH]c(=O)[nH]c3c2)c1O | 
27 | 58.1 µM | 4980 nM | COc1cc(I)cc(/C=N/c2ccc3[nH]c(=O)[nH]c3c2)c1O | 
28 |  | > 10000 nM | O=c1[nH]c2ccc(/N=C/c3ccc(O)cc3O)cc2[nH]1 | 
29 | 52.4 µM | 4730 nM | COc1cc(Br)cc(/C=N/c2ccc3[nH]c(=O)[nH]c3c2)c1O | 
30 | > 100 µM | 1900 nM | O=c1[nH]c2ccc(/N=C/c3cc(Br)ccc3O)cc2[nH]1 | 
31 | > 100 µM | 1410 nM | O=c1[nH]c2ccc(/N=C/c3cc(Cl)ccc3O)cc2[nH]1 | 
32 | 24.5 µM | 1350 nM | O=c1[nH]c2ccc(/N=C/c3c(O)cccc3Br)cc2[nH]1 | 
